For data set [1], the system named is SARS-CoV-2. The data set is described as follows: Antiviral activity against SARS-CoV-2 infected in human HPAEpiC cells assessed as reduction in viral replication by RT-qPCR assay. Particulars: Severe acute respiratory syndrome coronavirus 2, HPAEpiC; call rule not given here. Format: functional, organism-based.
The target in data set [2] is T1, Replicase polyprotein 1ab (Severe acute respiratory syndrome coronavirus 2, UniProt P0DTD1). The data set is described as follows: Inhibition of SARS-CoV-2 main protease by FRET assay.
A further data set concerns the target Cytochrome P450 3A4 (Homo sapiens, UniProt P08684). The data set can be described thus: Inhibition of CYP3A4 (unknown origin). Format: ADME.
A further data set addresses Cytochrome P450 2C9 (Homo sapiens, UniProt P11712). The data set can be described thus: Inhibition of CYP2C9 (unknown origin). Format: ADME.
The nature of data set [3]: Cytotoxicity against human BEAS-2B cells. It counts as toxicity, cell-based.
Data set [4] can be described thus: Cytotoxicity against African green monkey Vero cells. Format: toxicity, cell-based. Particulars: chlorocebus sabaeus.
The subject of data set [5] is SARS-CoV-2. The data set is described as follows: Antiviral activity against SARS CoV-2 infected in African green monkey VeroE6/TMPRSS2 assessed as reduction in plaque formation measured after 2 days by crystal violet staining based assay. It counts as functional, organism-based. Particulars: Severe acute respiratory syndrome coronavirus 2, VeroE6/TMPRSS2, 48 h.
For data set [6], the target named is T1, Replicase polyprotein 1ab. The data set can be described thus: Inhibition of SARS-CoV-2 Main protease using MCA-AVLQSGFR-Lys(DNP)-Lys-NH2 as substrate preincubated for 10 mins followed by substrate addition by FRET assay.

Molecules are shown by their SMILES.

Chain of Cytochrome P450 3A4 (P08684 whole entry): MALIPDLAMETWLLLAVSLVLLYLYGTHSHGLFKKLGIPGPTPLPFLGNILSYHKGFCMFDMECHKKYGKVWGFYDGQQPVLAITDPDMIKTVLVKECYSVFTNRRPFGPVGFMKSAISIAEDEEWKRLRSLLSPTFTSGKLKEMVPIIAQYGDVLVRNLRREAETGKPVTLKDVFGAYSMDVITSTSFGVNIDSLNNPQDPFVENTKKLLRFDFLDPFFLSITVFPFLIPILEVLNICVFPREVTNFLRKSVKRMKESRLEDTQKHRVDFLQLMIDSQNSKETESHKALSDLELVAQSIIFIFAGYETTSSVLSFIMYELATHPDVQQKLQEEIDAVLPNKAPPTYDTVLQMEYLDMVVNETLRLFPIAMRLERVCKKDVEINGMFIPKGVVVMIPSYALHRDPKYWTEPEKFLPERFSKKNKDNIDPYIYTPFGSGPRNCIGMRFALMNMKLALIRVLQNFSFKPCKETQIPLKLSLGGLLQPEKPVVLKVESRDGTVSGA
Chain of Cytochrome P450 2C9 (P11712 whole entry): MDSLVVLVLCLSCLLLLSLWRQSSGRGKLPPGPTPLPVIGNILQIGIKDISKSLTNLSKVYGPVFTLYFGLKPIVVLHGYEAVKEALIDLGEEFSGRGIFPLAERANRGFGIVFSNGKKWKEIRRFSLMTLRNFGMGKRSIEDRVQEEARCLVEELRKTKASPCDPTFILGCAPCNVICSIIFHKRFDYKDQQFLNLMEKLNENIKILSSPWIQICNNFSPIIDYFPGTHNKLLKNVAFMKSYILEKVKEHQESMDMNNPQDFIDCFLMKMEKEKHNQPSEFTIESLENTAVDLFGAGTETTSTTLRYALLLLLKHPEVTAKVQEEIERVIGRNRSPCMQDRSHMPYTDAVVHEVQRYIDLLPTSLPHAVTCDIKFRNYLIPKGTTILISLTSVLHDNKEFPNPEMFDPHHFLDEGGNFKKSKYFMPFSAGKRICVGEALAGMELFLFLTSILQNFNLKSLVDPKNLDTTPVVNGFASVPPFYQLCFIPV

The term EC50 denotes the concentration that produces a half-maximal response. Regarding `CCC(CC)COC(=O)[C@H](C)N[P@](=O)(OC[C@H]1O[C@@](C#N)(c2ccc3c(N)ncnn23)[C@H](O)[C@@H]1O)Oc1ccccc1`, the EC50 with SARS-CoV-2 [1] amounted to 364 nM.

With `CC(C)(C)[C@H](NC(=O)C(F)(F)F)C(=O)N1C[C@H]2[C@@H]([C@H]1C(=O)N[C@H](C#N)C[C@@H]1CCNC1=O)C2(C)C`, the half-maximal effective concentration (EC50) in the data set on SARS-CoV-2 [1] was determined as 50 nM.

The IC50 is the concentration at which inhibition is half-maximal. The compound `O=C(NCc1ccccn1)C(=O)[C@@H](Cc1ccccc1)NC(=O)[C@H]1COCCN1C(=O)[C@@H]1C[C@@H]2[C@H](C1)C2(F)F` had an IC50 in data set [2] of 23.6 nM.

For the compound `O=C(CCCc1ccccc1)N[C@H](Cc1ccccc1)C(=O)C(=O)NCc1ccccn1`, the “inhibition (INH)” value against Cytochrome P450 3A4 and against Cytochrome P450 2C9 was “Active” in each case. Moreover, in data set [2], the IC50 was 33.8 nM.

In data set [2], `O=C(CNC(=O)[C@@H]1C[C@@H]2[C@H](C1)C2(F)F)N[C@H](Cc1ccccc1)C(=O)C(=O)NCc1ccccn1` returned a concentration for half-maximal inhibition (IC50) of 17.9 nM.

Compound `C[C@@H](NC(=O)CC1CCC(F)(F)CC1)C(=O)N[C@H](Cc1ccccc1)C(=O)C(=O)NCc1ccccn1` gave an IC50 in data set [2] of 16.1 nM.

Take `CN(CC(=O)N[C@H](Cc1ccccc1)C(=O)C(=O)NCc1ccccn1)C(=O)C1CCC(F)(F)CC1`: it took 30.6 nM to reach half-maximal inhibition in data set [2] (IC50).

In the case of `N#Cc1cc(C(=O)NCC(=O)N[C@H](Cc2ccccc2)C(=O)C(=O)NCc2ccccn2)ccc1F`, the IC50 in data set [2] was 168 nM.

Turning to `O=C(CNC(=O)c1ccccc1)N[C@H](Cc1ccccc1)C(=O)C(=O)NCc1ccccn1`, the “inhibition (INH)” value against Cytochrome P450 3A4 and at Cytochrome P450 2C9 was “Active” each time. The compound also came in with an IC50 in data set [2] of 141 nM.

Turning to `O=C(CCc1ccccc1)N[C@H](Cc1ccccc1)C(=O)C(=O)NCc1ccccn1`, the “inhibition (INH)” value on Cytochrome P450 3A4 and against Cytochrome P450 2C9 was “Active” each time. This compound showed an IC50 in data set [2] of 86.7 nM.

Usually CC50 stands for the concentration giving 50% cytotoxicity. Turning to `COC[C@@H](NC(=O)C1CCC(F)(F)CC1)C(=O)N[C@H](Cc1ccccc1)C(=O)C(=O)NCc1ccccn1`, the CC50 in data set [3] and in data set [4] was above 100000 nM throughout. Half-maximal inhibition in data set [2] (IC50) was put at 17 nM. In the data set with SARS-CoV-2 [1], the EC50 came out at 59.5 nM.

Turning to `O=C(CNC(=O)C1CCC(F)(F)CC1)N[C@H](Cc1ccc(Cl)c(Cl)c1)C(=O)C(=O)NCc1ccccn1`, in data set [2], the IC50 is 34.4 nM.

Take `C[C@@H](NC(=O)C1CCC(F)(F)CC1)C(=O)N[C@H](Cc1ccccc1)C(=O)C(=O)NCc1ccccn1`: the CC50 in data set [3] and in data set [4] was above 100000 nM in each case. The EC50 in the data set with SARS-CoV-2 [1] was determined as 65.3 nM.

`C[C@@H](NC(=O)[C@@H]1C[C@@H]2[C@H](C1)C2(F)F)C(=O)N[C@H](Cc1ccccc1)C(=O)C(=O)NCc1ccccn1`: the half-maximal cytotoxic concentration (CC50) in data set [3] and in data set [4] was above 100000 nM throughout. In addition, the EC50 in the data set with SARS-CoV-2 [1] is 97.8 nM.

`O=C(Cc1ccccc1)N[C@H](Cc1ccccc1)C(=O)C(=O)NCc1ccccn1` came in with an IC50 in data set [2] of 219 nM.

Turning to `O=C(CNC(=O)C1CCC(F)(F)CC1)N[C@H](Cc1ccccc1)C(=O)C(=O)NCc1ccccn1`, the CC50 in data set [3] and in data set [4] was above 100000 nM each time. The EC50 in the data set on SARS-CoV-2 [1] was 102 nM.

As to `O=C(NCc1ccccn1)C(=O)[C@@H](Cc1ccccc1)NC(=O)[C@H]1CC(F)(F)CN1C(=O)[C@@H]1C[C@@H]2[C@H](C1)C2(F)F`, the IC50 in data set [2] was 37.2 nM.

`O=C(NCc1ccccn1)C(=O)[C@@H](Cc1ccccc1)NC(=O)[C@H]1CC(F)(F)CN1C(=O)CC1CCC(F)(F)CC1` displayed a 50% inhibitory concentration (IC50) in data set [2] of 35 nM.

As to `O=C(NCc1ccccn1)C(=O)[C@@H](Cc1ccccc1)NC(=O)c1ccccc1`, in data set [2], the midpoint of inhibition, the IC50, lay at 208 nM.

`O=C(CC1CCC(F)(F)CC1)NCC(=O)N[C@H](Cc1ccccc1)C(=O)C(=O)NCc1ccccn1` registered an IC50 in data set [2] of 15 nM.

`O=C(COc1ccccc1)N[C@H](Cc1ccccc1)C(=O)C(=O)NCc1ccccn1`: the “inhibition (INH)” value against Cytochrome P450 3A4 and on Cytochrome P450 2C9 was “Active” throughout. In data set [2], this compound showed an IC50 of 55.5 nM.

`O=C(NCc1ccccn1)C(=O)[C@@H](Cc1ccccc1)NC(=O)C1(NC(=O)C2CCC(F)(F)CC2)CC1` yielded an IC50 in data set [2] of 21.2 nM.

`O=C(CNC(=O)c1ccc(Cl)c(F)c1)N[C@H](Cc1ccccc1)C(=O)C(=O)NCc1ccccn1`: the IC50 in data set [2] amounted to 18.5 nM.

`CC[C@@H](NC(=O)C1CCC(F)(F)CC1)C(=O)N[C@H](Cc1ccccc1)C(=O)C(=O)NCc1ccccn1` yielded an IC50 in data set [2] of 41.6 nM.

With `O=C(NCc1ccccn1)C(=O)[C@@H](Cc1ccccc1)NC(=O)[C@H]1COCCN1C(=O)CC1CCC(F)(F)CC1`, the CC50 in data set [3] and in data set [4] was above 100000 nM in each case. Moreover, the IC50 in data set [2] was 10.9 nM. The concentration for a half-maximal effect (EC50) with SARS-CoV-2 [1] was 66.4 nM.

On to `[2H][C@](C(=O)N[C@@H](C)c1ccc(F)cc1)(c1ccccc1)N(C(=O)C(C)=O)c1ccc2c(c1)oc1ccccc12`, for which the EC50 in the data set with SARS-CoV-2 [5] came to 11 nM. For the same compound, the IC50 in data set [6] worked out at 8 nM.

(Values after ChEMBL document CHEMBL5625201, “Discovery and structure-activity relationship studies of novel α-ketoamide derivatives targeting the SARS-CoV-2 main protease” (Eur J Med Chem, 2023).)
